Assay results: patent publication US20050245399A1, “Pyrazole derivatives as herbicidal compositions containing them” (ISHIHARA SANGYO KAISHA, LTD., priority 2004, published 2005)

Legend:
Assay type in all cases: in vivo
[1] = system: soybean (Glycine max Merr.), GLXMA; test: Test Example 2 post-emergence (foliage treatment) herbicidal activity, GLXMA; conditions: 63 g a.i./ha
How it was run: (§1)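 A small sprayer delivered the diluted WP or EC formulation (500 L/ha water, 0.1% v/v spreader) over emerged seedlings in upland soil pots. Damage relative to untreated plants was graded visually from 0 to 100% three weeks or so later (days 20-23).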

[2] = system: prickly sida (Sida spinosa L.): SEDSP; test: Test Example 1 pre-emergence herbicidal activity, SIDSP; conditions: Rate 63 g a.i./ha, visually observed 20th to 23rd day after application
How it was run: (§2)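 Seeds go into pots of upland field soil; one day on, the diluted formulation (500 L/ha water) is sprayed pre-emergence. Effects are scored visually 20 to 23 days post-application as 0–100% growth control.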

[3] = system: velvetleaf (Abutilon theophrasti): ABUTH; test: Test Example 1 pre-emergence herbicidal activity, ABUTH; conditions: Rate 63 g a.i./ha, visually observed 20th to 23rd day after application
How it was run: as §2

[4] = system: corn (Zea mays L.): ZEAMX; test: Test Example 1 pre-emergence herbicidal activity, ZEAMX; conditions: Rate 63 g a.i./ha, visually observed 20th to 23rd day after application
How it was run: as §2

[5] = system: soybean (Glycine max Merr.): GLXMA; test: Test Example 1 pre-emergence herbicidal activity, GLXMA; conditions: Rate 63 g a.i./ha, visually observed 20th to 23rd day after application
How it was run: as §2

[6] = system: japanese bulrush (Scirpus juncoides: SCPJO); test: Test Example 3 water application herbicidal activity (paddy), SCPJO; conditions: 63 g a.i./ha, water application under submerged condition at 0.5 leaf stage, visually observed 14th day after application; 0 = untreated control, 100 = complete kill
How it was run: (§3)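 Submerged application in flooded paddy soil (3–4 cm water); weeds treated at 0.5-leaf stage, transplanted rice 4 d after transplanting. Scored visually as % growth control: weeds at 14 d, rice at 21 d.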

[7] = system: barnyardgrass (Echinochloa crus-galli L.): ECHCG; test: Test Example 1 pre-emergence herbicidal activity, ECHCG; conditions: Rate 63 g a.i./ha, visually observed 20th to 23rd day after application
How it was run: as §2

[8] = system: japanese ribbon wapato (Sagittaria pygmaea: SA GPY); test: Test Example 3 water application herbicidal activity (paddy), SAGPY; conditions: 63 g a.i./ha, water application under submerged condition, tubers planted, visually observed 14th day after application; 0 = untreated control, 100 = complete kill
How it was run: as §3

[9] = system: barnyardgrass (Echinochloa crus-galli L.), ECHCG; test: Test Example 2 post-emergence (foliage treatment) herbicidal activity, ECHCG; conditions: 63 g a.i./ha
How it was run: (§4)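 Sow in upland soil; grow to leaf stage (barnyardgrass 1.1-2.1, crabgrass 1.0-2.0, pigweed 0.1-1.5, rice 1.0-2); spray foliage at a fixed active ingredient rate in 500 L/ha water with 0.1% (v/v) spreader; rate growth control visually at 20-23 days on a 0-100% scale.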

[10] = system: rice (Oryza sativa L.): ORYSA; test: Test Example 1 pre-emergence herbicidal activity, ORYSA; conditions: Rate 63 g a.i./ha, visually observed 20th to 23rd day after application
How it was run: as §2

[11] = system: wheat (Triticum aestivum L.): TRZAX; test: Test Example 1 pre-emergence herbicidal activity, TRZAX; conditions: Rate 63 g a.i./ha, visually observed 20th to 23rd day after application
How it was run: as §2

[12] = system: crabgrass (Digitaria sanguinalis L.): DIGSA; test: Test Example 1 pre-emergence herbicidal activity, DIGSA; conditions: Rate 63 g a.i./ha, visually observed 20th to 23rd day after application
How it was run: as §2

[13] = system: green foxtail (Setaria viridis L.), SETVI; test: Test Example 2 post-emergence (foliage treatment) herbicidal activity, SETVI; conditions: 63 g a.i./ha
How it was run: as §1

[14] = system: rice (Oryza sativa L.: ORYSA); test: Test Example 3 water application herbicidal activity (paddy), transplanted rice ORYSA; conditions: 63 g a.i./ha, water application 4th day after transplantation of 2 leaf stage rice, visually observed 21st day after application; 0 = untreated control, 100 = complete kill
How it was run: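 Flooded paddy-soil pots in greenhouse; ECHOR and SCPJO sown, SAGPY tubers planted a day later, compound applied into 3–4 cm water at weeds' 0.5-leaf stage. Rice transplanted at 2-leaf stage, treated day 4 after transplanting. Visual growth control 0–100% at 14 days (weeds) and 21 days (rice) after application.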

[15] = system: corn (Zea mays L.), ZEAMX; test: Test Example 2 post-emergence (foliage treatment) herbicidal activity, ZEAMX; conditions: 63 g a.i./ha
How it was run: as §1

[16] = system: redroot pigweed (Amaranthus retroflexus L.): AMARE; test: Test Example 1 pre-emergence herbicidal activity, AMARE; conditions: Rate 63 g a.i./ha, visually observed 20th to 23rd day after application
How it was run: as §2

[17] = system: green foxtail (Setaria viridis L.): SETVI; test: Test Example 1 pre-emergence herbicidal activity, SETVI; conditions: Rate 63 g a.i./ha, visually observed 20th to 23rd day after application
How it was run: as §2

[18] = system: wheat (Triticum aestivum L.), TRZAX; test: Test Example 2 post-emergence (foliage treatment) herbicidal activity, TRZAX; conditions: 63 g a.i./ha
How it was run: as §1

[19] = system: barnyardgrass (Echinochiloa oryzicola: ECHOR); test: Test Example 3 water application herbicidal activity (paddy), ECHOR; conditions: 63 g a.i./ha, water application under submerged condition at 0.5 leaf stage, visually observed 14th day after application; 0 = untreated control, 100 = complete kill
How it was run: as §3

[20] = system: rice (Oryza sativa L.), ORYSA; test: Test Example 2 post-emergence (foliage treatment) herbicidal activity, ORYSA; conditions: 63 g a.i./ha
How it was run: as §4

[21] = system: prickly sida (Sida spinosa L.), SIDSP; test: Test Example 2 post-emergence (foliage treatment) herbicidal activity, SIDSP; conditions: 63 g a.i./ha
How it was run: as §1

[22] = system: redroot pigweed (Amaranthus retroflexus L.), AMARE; test: Test Example 2 post-emergence (foliage treatment) herbicidal activity, AMARE; conditions: 63 g a.i./ha
How it was run: as §4

[23] = system: crabgrass (Digitaria sanguinalis L.), DIGSA; test: Test Example 2 post-emergence (foliage treatment) herbicidal activity, DIGSA; conditions: 63 g a.i./ha
How it was run: as §4

[24] = system: velvetleaf (Abutilon theophrasti), ABUTH; test: Test Example 2 post-emergence (foliage treatment) herbicidal activity, ABUTH; conditions: 63 g a.i./ha
How it was run: as §1

| Compound | growth controlling degree, GLXMA [1] | Pre-emergence Herbicidal Activity SIDSP (growth controlling degree) [2] | Pre-emergence Herbicidal Activity ABUTH (growth controlling degree) [3] | Pre-emergence Herbicidal Activity ZEAMX (growth controlling degree) [4] | Pre-emergence Herbicidal Activity GLXMA (growth controlling degree) [5] | growth controlling degrees (%) SCPJO [6] | Pre-emergence Herbicidal Activity ECHCG (growth controlling degree) [7] | growth controlling degrees (%) SAGPY [8] | growth controlling degree, ECHCO [9] | Pre-emergence Herbicidal Activity ORYSA (growth controlling degree) [10] | Pre-emergence Herbicidal Activity TRZAX (growth controlling degree) [11] | Pre-emergence Herbicidal Activity DIGSP (growth controlling degree) [12] | growth controlling degree, SETVI [13] | growth controlling degrees (%) ORYSA [14] | growth controlling degree, ZEAMX [15] | Pre-emergence Herbicidal Activity AMARE (growth controlling degree) [16] | Pre-emergence Herbicidal Activity SETVI (growth controlling degree) [17] | growth controlling degree, TRZAX [18] | growth controlling degrees (%) ECHOR [19] | growth controlling degree, ORYSA [20] | other results |
| --- | --- | --- | --- | --- | --- | --- | --- | --- | --- | --- | --- | --- | --- | --- | --- | --- | --- | --- | --- | --- | --- |
| COc1c(Cl)cc(F)c(-c2nn(C)c(OC(F)F)c2Cl)c1NC(=O)c1cccc(Cl)c1 [Compound 1-26] | 70% | 70% | 100% | 10% | 10% | 70% | 70% | 100% | 95% | 30% | 10% | 98% | 100% | 60% | 40% | 100% | 100% | 30% | 100% | 80% | growth controlling degree, SIDSP [21]: 100%; growth controlling degree, AMARE [22]: 100%; growth controlling degree, DIGSP [23]: 60%; growth controlling degree, ABUTH [24]: 100% |
| COc1ccc(OC(=O)Nc2c(OC)c(Cl)cc(F)c2-c2nn(C)c(OC(F)F)c2Cl)cc1 [Compound 1-57] | 90% | 70% | 60% | 0% | 0% | 100% | 70% | 100% | 100% | 20% | 30% | 80% | 100% | 50% | 90% | 100% | 95% | 40% | 100% | 95% | growth controlling degree, SIDSP [21]: 100%; growth controlling degree, AMARE [22]: 100%; growth controlling degree, DIGSP [23]: 100%; growth controlling degree, ABUTH [24]: 100% |
| C#CCN(C=O)c1c(OC(F)F)c(Cl)cc(F)c1-c1nn(C)c(OC(F)F)c1Cl [Compound 1-85] | 60% | 70% | 30% | 10% | 0% | 60% | 60% | 70% | 80% | 10% | 0% | 100% | 100% | 70% | 40% | 100% | 70% | 40% | 100% | 60% | growth controlling degree, SIDSP [21]: 95%; growth controlling degree, AMARE [22]: 100%; growth controlling degree, DIGSP [23]: 80%; growth controlling degree, ABUTH [24]: 100% |
| COc1c(Cl)cc(F)c(-c2nn(C)c(OC(F)F)c2Cl)c1NC(=O)C(C)C [Compound 1-3] | 80% | 100% | 100% | 50% | 20% | 98% | 100% | 100% | 70% | 80% | 40% | 100% | 100% | 80% | 70% | 100% | 100% | 40% | 100% | 80% | growth controlling degree, SIDSP [21]: 100%; growth controlling degree, AMARE [22]: 100%; growth controlling degree, DIGSP [23]: 95%; growth controlling degree, ABUTH [24]: 100% |
| COCCOC(=O)Nc1c(OC)c(Cl)cc(F)c1-c1nn(C)c(OC(F)F)c1Cl [Compound 1-61] | 80% | 100% | 100% | 30% | 10% | 90% | 100% | 100% | 100% | 70% | 50% | 100% | 100% | 95% | 80% | 100% | 100% | 60% | 100% | 80% | growth controlling degree, SIDSP [21]: 100%; growth controlling degree, AMARE [22]: 100%; growth controlling degree, DIGSP [23]: 100%; growth controlling degree, ABUTH [24]: 100% |
